Reference: patent publication US20060014801A1, “Prevention and treatment of cognitive impairment using (R)-(-)-5-methyl-1-nicotynoyl-2-pyrazoline (MNP) and analogs” (The Johns Hopkins University, priority 2002, published 2006)

What was measured:
[1] = tested on: aged impaired (AI) rats; type: in vivo; conditions: 50 mg/kg/day s.c. minipump
Experimental: Spatial memory version of the Morris water maze: Behavioral testing is conducted by an experimenter who is blind to drug treatment. Fourteen 25-27 month-old Long-Evans rats, previously characterized as cognitively impaired (AI rats), were tested in a modified version of the Morris water maze (MWM) task using the same MWM apparatus as described above. Unlike the traditional protocol wherein the platform location remained constant throughout training, the escape platform location in this spatial memory version of the task varied from day-to-day (in one of nine different positions).
AI rats were given six training trials per day with a 60-sec intertrial interval. On each training trial, the rat was released in the maze from one of four equally spaced starting positions around the perimeter of the pool. […] Following the six training trials, the rat is returned to its home cage and placed in the animal housing room. After a delay of four hours, the rat is given one additional testing trial (the “retention trial”) with the escape platform located in the same position as in the 6 training trials. The length of the rat's swim path to reach the escape platform is measured in all six training trials and the retention trial. Spatial memory in this task is measured by comparing the swim path lengths in the retention trial with the sixth (and final) training trial. […] A greater difference in performance in these two trials represents a greater degree of forgetting. After two days of acclimation to these procedures, this test protocol is given for nine consecutive days, with the position of the escape platform moved daily.
MNP enhances the cognitive performance of aged rats in the spatial memory version of the MWM: Following characterization for cognitive status with a traditional MWM protocol, impaired aged rats were assigned to one of two treatment conditions (vehicle controls or MNP). […] AI rats were pretreated with either vehicle or MNP for 9 days prior to behavioral testing. Osmotic minipumps (Alzet) were filled with either vehicle (0.9% saline) or MNP (50 mg/kg/day) and implanted subcutaneously. Initially, Alzet pumps that administer compound for one week were implanted; after seven days, these pumps (now empty) were removed and replaced with full two-week pumps allowing delivery of either MNP or saline for a total of 21 days. On Day 9 of treatment with either vehicle or MNP, MWM testing was begun. Data were collected in two replications with vehicle- and drug-treated rats represented in each. A total of 9 vehicle-treated and 5 MNP-treated rats completed the entire protocol. Several rats in both treatment groups, however, died during the execution of the study. […]

[2] = tested on: rat; test: Other behavioral measures in the rat; type: in vivo; conditions: 10 mg/kg/day
[3] = tested on: GLT1B; test: Western blot of GLT1B protein expression in hippocampus of young rats after 7 days s.c. MNP; type: in vivo, Long-Evans rats; conditions: 50 mg/kg/day s.c. minipump
Experimental: Administration of MNP: Twelve young Long-Evans rats, weighing approximately 400-500 grams, received treatment with either vehicle (0.9% saline; n=6) or MNP (50 mg/kg/day; n=6). The rats were administered MNP and vehicle continuously for one week via an osmotic minipump (Alzet, model 2ML1) implanted subcutaneously on the back, slightly posterior to the scapulae. After 7 days of treatment, the rats were sacrificed, their brains were removed, the hippocampi dissected out, frozen on dry ice and sent for Western blot analysis. The implanted minipump was also removed to verify proper drug delivery by measuring residual volume.
Preparation of brain tissue; Hippocampi were homogenized in 2 ml sucrose buffer (20 mM Tris pH 7.4, 10% sucrose, complete protease inhibitor cocktail mini-tablets [Roche cat#1-836-153]) for 25 seconds (Omni 115V Tissue Homogenizer TH-115). SDS (at 2%) was immediately added to the homogenate, and the samples were sonicated (Branson Sonifier 250; 10 pulses each). Extracts were total cellular extracts solubilized in SDS and include both cytoplasmic and membrane-bound GLT1.
Western blot analysis: Immunoblotting was performed using a LICOR Odyssey based system which uses IRDye 800 and Alexa Fluor 680 labeled secondary antibodies and signal is detected by diode lasers sensitive to infrared emissions of different wavelength. […]

## C[C@@H]1CC=NN1C(=O)c1cccnc1 [MNP, (R)-(−)-5-methyl-1-nicotinoyl-2-pyrazoline]
[1]; 4-hour delay
  Difference in performance between final training trial and retention trial: no significant difference in performance
[1]; 4-hour delay, Days 9-11 of treatment
  Performance in retention trials vs vehicle-treated controls: performed significantly better
[1]; Mann Whitney U test p<0.05
  Savings scores (memory for the platform location) vs vehicle-treated controls: significantly better than vehicle-treated controls
[1]; two-way analysis of variance
  Performance on training trials 1-6 vs vehicle group: no significant difference between the groups
[2]
  Efficacy in other behavioral measures in the rat: efficacious
[3]
  GLT1B immunoreactivity compared to vehicle controls: no difference
